One experiment deals with MS751 cells. In words: MTT cell proliferation assay, MS751. The following applies: Homo sapiens, MS751, MS751 cells; eight concentrations 1 nM to 30 μM; incubation approximately 64-72 hours; read-out: MTT Assay IC50, MS751. It is filed as cell-based, human. As for the experimental part: (§1) The MTT cell proliferation assay was used to study the cytotoxic properties of the compounds. The assay was performed according to the method described by Roche Molecular Biochemicals, with minor modifications. The assay is based on the cleavage of the tetrazolium salt, MTT, in the presence of an electron-coupling reagent. The water-insoluble formazan salt produced must be solubilized in an additional step. Cells grown in a 96-well tissue culture plate were incubated with the MTT solution for approximately 4 hours. After this incubation period, a water-insoluble formazan dye formed. After solubilization, the formazan dye was quantitated using a scanning multi-well spectrophotometer (ELISA reader). […] The cells were seeded at 5,000-10,000 cells in each well of 96-well plate in 100 μL of fresh culture medium and were allowed to attach overnight. The stock solutions of the compounds were diluted in 100 μL cell culture medium to obtain eight concentrations of each test compound, ranging from 1 nM to 30 μM. […] All optical densities were measured at 490 nm using a Vmax Kinetic Microplate Reader (Molecular Devices). In most cases, the assay was performed in duplicate and the results were presented as a mean percent inhibition to the negative control±SE. The following formula was used to calculate the percent of inhibition: Inhibition (%)=(1-(ODo/OD)) ×100.
(§2) The compounds were tested against MS751, Z138 and 3T3 cells. The MS751 cell line is derived from a metastasis to lymph node of human cervix from a patient diagnosed with squameous cell carcinoma of the cervix. The Z138 cell line is a mature B-cell acute lymphoblastic leukemia cell line derived from a patient with chronic lumphocytic leukemia. 3T3 cells are standard fibroblast cells; they were originally isolated from Swiss mouse embryo tissue.
For orientation: Formazan colour is commonly taken as a measure of viable cells.

A further experiment has as its system 3T3 cells. In words: MTT cell proliferation assay, 3T3. It is filed as cell-based, mouse. The following applies: Mus musculus, NIH3T3, 3T3 cells; eight concentrations 1 nM to 30 μM; incubation approximately 64-72 hours; read-out: MTT Assay IC50, 3T3. As for the experimental part:
as §1, §2

The next experiment has as its system Z138 cells. The experiment is described as follows: MTT cell proliferation assay, Z138. It is filed as cell-based. The following applies: Homo sapiens, Z-138, Z138 cells; eight concentrations 1 nM to 30 μM; incubation approximately 64-72 hours; read-out: MTT Assay IC50, Z138. As for the experimental part: as §1, §2

What is called IC50 is the concentration that gives 50% inhibition.

Consider `O=C(/C=C/c1cccnc1)NCC1Cc2cc(-c3ccc(Cl)cc3F)cc(Cl)c2O1` (stereo not drawn) [Compound 55, (E)-N-((7-chloro-5-(4-chloro-2-fluorophenyl)-2,3-dihydrobenzofuran-2-yl)methyl)-3-(pyridin-3-yl)acrylamide], for which the IC50 in the experiment with MS751 cells is 0.1 to 5 µM; with 3T3 cells it was greater than 30 µM; with Z138 cells, 0.1 to 5 µM.
Regarding `O=C(/C=C/c1cccnc1)NCC1Cc2cc(-c3cccc(CO)c3)cc(Cl)c2O1` (stereo not drawn) [Compound 58, (E)-N-((7-chloro-5-(3-(hydroxymethyl)phenyl)-2,3-dihydrobenzofuran-2-yl)methyl)-3-(pyridin-3-yl)acrylamide], the IC50 in the experiment with MS751 cells, with 3T3 cells and with Z138 cells was 0.1 to 5 µM in each case.
On to `COc1ccc(F)cc1-c1cc(Cl)c2c(c1)CC(CNC(=O)/C=C/c1cccnc1)O2` (stereo not drawn) [Compound 61, (E)-N-((7-chloro-5-(5-fluoro-2-methoxyphenyl)-2,3-dihydrobenzofuran-2-yl)methyl)-3-(pyridin-3-yl)acrylamide], for which the IC50 with MS751 cells, with 3T3 cells and in the experiment on Z138 cells was 0.1 to 5 µM each time.
In the case of `CN(C)c1ccc(-c2cc(Cl)c3c(c2)CC(CNC(=O)/C=C/c2cccnc2)O3)cc1` (stereo not drawn) [Compound 64, (E)-N-((7-chloro-5-(4-(dimethylamino)phenyl)-2,3-dihydrobenzofuran-2-yl)methyl)-3-(pyridin-3-yl)acrylamide], the values for the 50% inhibitory concentration (IC50) with MS751 cells, in the experiment with 3T3 cells and in the experiment with Z138 cells were 0.1 to 5 µM, 0.1 to 5 µM and less than 0.1 µM, respectively.
`O=C(/C=C/c1cccnc1)NCC1Cc2cc(-c3ccccc3)cc(Cl)c2O1` (stereo not drawn) [Compound 67, (E)-N-((7-chloro-5-phenyl-2,3-dihydrobenzofuran-2-yl)methyl)-3-(pyridin-3-yl)acrylamide]: the IC50 in the experiment on MS751 cells lay within 0.1 to 5 µM; in the experiment on 3T3 cells it was 5 to 30 µM; in the experiment with Z138 cells, 0.1 to 5 µM.
For `O=C(/C=C/c1cccnc1)NCC1Cc2cc(-c3cccnc3)cc(Cl)c2O1` (stereo not drawn) [Compound 70, (E)-N-((7-chloro-5-(pyridin-3-yl)-2,3-dihydrobenzofuran-2-yl)methyl)-3-(pyridin-3-yl)acrylamide], the IC50 with MS751 cells lay within 0.1 to 5 µM; in the experiment with 3T3 cells, 5 to 30 µM; in the experiment on Z138 cells, 0.1 to 5 µM.
For `O=C(/C=C/c1cccnc1)NCC1Cc2cc(-c3cccc(F)c3F)cc(Cl)c2O1` (stereo not drawn) [Compound 73, (E)-N-((7-chloro-5-(2,3-difluorophenyl)-2,3-dihydrobenzofuran-2-yl)methyl)-3-(pyridin-3-yl)acrylamide], the figures for the IC50 with MS751 cells, in the experiment with 3T3 cells and in the experiment with Z138 cells were 0.1 to 5 µM, 5 to 30 µM and 0.1 to 5 µM, respectively.
Take `O=C(/C=C/c1cccnc1)NCC1Cc2cc(-c3cccc(C(=O)O)c3)cc(Cl)c2O1` (stereo not drawn) [Compound 76, (E)-3-(7-chloro-2-((3-(pyridin-3-yl)acrylamido)methyl)-2,3-dihydrobenzofuran-5-yl)benzoic acid]: the IC50 in the experiment on MS751 cells, with 3T3 cells and in the experiment with Z138 cells was 5 to 30 µM in each case.
Regarding `CS(=O)(=O)c1cncc(-c2cc(Cl)c3c(c2)CC(CNC(=O)/C=C/c2cccnc2)O3)c1` (stereo not drawn) [Compound 77, (E)-N-((7-chloro-5-(5-(methylsulfonyl)pyridin-3-yl)-2,3-dihydrobenzofuran-2-yl)methyl)-3-(pyridin-3-yl)acrylamide], the IC50 with MS751 cells, in the experiment with 3T3 cells and with Z138 cells was 0.1 to 5 µM each time.
Regarding `CS(=O)(=O)c1cccc(-c2cc(Cl)c3c(c2)CC(CNC(=O)/C=C/c2cccnc2)O3)c1` (stereo not drawn) [Compound 80, (E)-N-((7-chloro-5-(3-(methylsulfonyl)phenyl)-2,3-dihydrobenzofuran-2-yl)methyl)-3-(pyridin-3-yl)acrylamide], the half-inhibitory concentration (IC50) in the experiment on MS751 cells, in the experiment with 3T3 cells and with Z138 cells was 0.1 to 5 µM each time.
For `O=C(/C=C/c1cccnc1)NCC1Cc2cccc(Cl)c2O1` (stereo not drawn) [Compound 83, (E)-N-((7-chloro-2,3-dihydrobenzofuran-2-yl)methyl)-3-(pyridin-3-yl)acrylamide], the IC50 with MS751 cells is 5 to 30 µM; in the experiment with 3T3 cells, greater than 30 µM; in the experiment with Z138 cells it was 5 to 30 µM.
With `Nc1ccccc1-c1cc(Cl)c2c(c1)CC(CNC(=O)/C=C/c1cccnc1)O2` (stereo not drawn) [Compound 84, (E)-N-((5-(2-aminophenyl)-7-chloro-2,3-dihydrobenzofuran-2-yl)methyl)-3-(pyridin-3-yl)acrylamide], the values for the IC50 with MS751 cells, in the experiment with 3T3 cells and in the experiment with Z138 cells were 0.1 to 5 µM, 5 to 30 µM and 0.1 to 5 µM, respectively.
On to `CC(=O)c1ccc(-c2cc(F)c3c(c2)CC(CNC(=O)/C=C/c2cccnc2)O3)s1` (stereo not drawn) [Compound 87, (E)-N-((5-(5-acetylthiophen-2-yl)-7-fluoro-2,3-dihydrobenzofuran-2-yl)methyl)-3-(pyridin-3-yl)acrylamide], for which the IC50 in the experiment on MS751 cells, in the experiment with 3T3 cells and in the experiment on Z138 cells was 0.1 to 5 µM each time.
Take `CC(=O)c1ccc(-c2cc(Cl)c3c(c2)CC(CNC(=O)/C=C/c2cccnc2)O3)o1` (stereo not drawn) [Compound 99, (E)-N-((5-(5-acetylfuran-2-yl)-7-chloro-2,3-dihydrobenzofuran-2-yl)methyl)-3-(pyridin-3-yl)acrylamide]: the half-inhibitory concentration (IC50) in the experiment on MS751 cells is less than 0.1 µM; in the experiment on 3T3 cells, 0.1 to 5 µM; in the experiment with Z138 cells it was less than 0.1 µM.
As for `CC(=O)c1ccc(-c2cc(Cl)c3c(c2)CC(CNC(=O)/C=C/c2ccccn2)O3)s1` (stereo not drawn) [Compound 103, (E)-N-((5-(5-acetylthiophen-2-yl)-7-chloro-2,3-dihydrobenzofuran-2-yl)methyl)-3-(pyridin-2-yl)acrylamide], the IC50 in the experiment on MS751 cells, with 3T3 cells and in the experiment on Z138 cells was greater than 30 µM in each case.
`CC(=O)c1ccc(-c2cc(Cl)c3c(c2)CC(CNC(=O)/C=C/c2cnc(N)nc2)O3)s1` (stereo not drawn) [Compound 104, (E)-N-((5-(5-acetylthiophen-2-yl)-7-chloro-2,3-dihydrobenzofuran-2-yl)methyl)-3-(2-aminopyrimidin-5-yl)acrylamide]: the IC50 in the experiment with MS751 cells, with 3T3 cells and in the experiment with Z138 cells was greater than 30 µM throughout.
For `CC(=O)c1ccc(-c2cc(Cl)c3c(c2)CC(CNC(=O)/C=C/c2cccnc2N)O3)s1` (stereo not drawn) [Compound 106, (E)-N-((5-(5-acetylthiophen-2-yl)-7-chloro-2,3-dihydrobenzofuran-2-yl)methyl)-3-(2-aminopyridin-3-yl)acrylamide], the half-maximal inhibitory concentration (IC50) with MS751 cells, in the experiment with 3T3 cells and in the experiment with Z138 cells was 5 to 30 µM throughout.
Take `CC(=O)c1ccc(-c2cc(Cl)c3c(c2)CC(CNC(=O)/C=C/c2cnccc2N)O3)s1` (stereo not drawn) [Compound 108, (E)-N-((5-(5-acetylthiophen-2-yl)-7-chloro-2,3-dihydrobenzofuran-2-yl)methyl)-3-(4-aminopyridin-3-yl)acrylamide]: the IC50 with MS751 cells was 0.1 to 5 µM; in the experiment on 3T3 cells, 5 to 30 µM; in the experiment on Z138 cells, 0.1 to 5 µM.
Turning to `CC(=O)c1ccc(-c2cc(Cl)c3c(c2)CC(CNC(=O)/C=C/c2ccccc2N)O3)s1` (stereo not drawn) [Compound 110, (E)-N-((5-(5-acetylthiophen-2-yl)-7-chloro-2,3-dihydrobenzofuran-2-yl)methyl)-3-(2-aminophenyl)acrylamide], the half-maximal inhibitory concentration (IC50) in the experiment on MS751 cells, with 3T3 cells and in the experiment with Z138 cells was greater than 30 µM each time.
Regarding `CC(=O)c1ccc(-c2cc(Cl)c3c(c2)CC(CNC(=O)/C=C/c2ccc(C#N)cc2)O3)s1` (stereo not drawn) [Compound 112, (E)-N-((5-(5-acetylthiophen-2-yl)-7-chloro-2,3-dihydrobenzofuran-2-yl)methyl)-3-(4-cyanophenyl)acrylamide], the IC50 with MS751 cells, in the experiment on 3T3 cells and with Z138 cells was greater than 30 µM throughout.
In the case of `CC(=O)c1ccc(-c2cc(Cl)c3c(c2)CC(CNC(=O)/C=C/c2ccc(N)cc2)O3)s1` (stereo not drawn) [Compound 114, (E)-N-((5-(5-acetylthiophen-2-yl)-7-chloro-2,3-dihydrobenzofuran-2-yl)methyl)-3-(4-aminophenyl)acrylamide], the IC50 in the experiment with MS751 cells, in the experiment on 3T3 cells and in the experiment with Z138 cells was greater than 30 µM in each case.
Turning to `CC(=O)c1ccc(-c2cc(Cl)c3c(c2)CC(CNC(=O)/C=C/c2ccc(N)nc2C)O3)s1` (stereo not drawn) [Compound 118, (E)-N-((5-(5-acetylthiophen-2-yl)-7-chloro-2,3-dihydrobenzofuran-2-yl)methyl)-3-(6-amino-2-methylpyridin-3-yl)acrylamide], the IC50 in the experiment with MS751 cells fell in the range of 5 to 30 µM; in the experiment with 3T3 cells, 5 to 30 µM; in the experiment with Z138 cells it was 0.1 to 5 µM.
Regarding `CC(=O)c1ccc(-c2cc(Cl)c3c(c2)CC(CNC(=O)/C=C/C2C(Cl)=NC4=CC=CCN42)O3)s1` (stereo not drawn) [Compound 120, (E)-N-((5-(5-Acetylthiophen-2-yl)-7-chloro-2,3-dihydrobenzofuran-2-yl)methyl)-3-(2-chloro-3,5-dihydroimidazo[1,2-a]pyridin-3-yl)acrylamide], the IC50 with MS751 cells, in the experiment with 3T3 cells and in the experiment with Z138 cells was 5 to 30 µM in each case.

Source of the values: patent US9938258B2 (Karyopharm Therapeutics Inc., priority 2012, dated 2018).
